Results published in patent US10517861B2, “Biomarkers for predicting and assessing responsiveness of endometrial cancer subjects to lenvatinib compounds” (Eisai R&D Management Co., Ltd., priority 2013, dated 2019).

Columns and labels:
[1] = tested on: patients with advanced or recurrent endometrial cancer (EC); assay: Phase II study of E7080 in patients with advanced or recurrent endometrial cancer: tumor response (ORR) and survival (PFS, OS); type: in vivo, human
Experimental: Purpose: Angiogenesis is regulated by signaling through multiple growth factor receptors, such as VEGF receptor and FGF receptor. VEGF receptor signaling is also associated with immune cell function. E7080 is an oral angiogenesis inhibitor targeting multiple receptor tyrosine kinase; VEGFR1-3, FGFR1-4, RET, KIT, and PDGFRβ. A phase II study was performed in patients with advanced or recurrent endometrial cancer (EC) following 1 or 2 prior platinum-based treatments (Tx). The importance of angiogenesis in EC highlights the need to understand clinical mechanisms of escape from anti-angiogenic therapy. This clinical biomarker analysis was conducted to identify predictive markers of clinical benefit in EC patients upon E7080 treatment. Circulating cytokine and angiogenic factors (CAFs) can be measured in blood samples using ELISA and multiplex assay platforms. The CAFs examined in this study are listed below in Table 2. Numbers in parenthesis indicate bead region for each analyte.
(§1) The purpose of this analysis was to measure cytokine, chemokine and angiogenic factors in blood samples, such as plasma and serum, obtained from patients in clinical trials at both pre- and post-treatment with E7080 and to identify blood biomarkers which can be used to predict whether patients will respond to treatment with E7080. For these analyses, the following criteria of response were employed, namely:
(a) Tumor response: objective response rate (ORR) and % of maximum tumor shrinkage (MTS); and
(b) Survival Benefits: progression free survival (PFS)/overall survival (OS).
Materials and Methods: Patients who had metastatic/unresectable endometrial cancer after 1 or 2 prior platinum-based treatments received lenvatinib until disease progression or development of unmanageable toxicities. Patients received E7080 at a starting dose of 24 mg orally once daily in 28 day cycles. 133 patients were treated and evaluated for efficacy and molecular correlative analysis. This study was a part of the Phase 2 multicenter study of lenvatinib (ClinicalTrial.gov Identifier: NCT01111461). Baseline and post-treatment plasma samples were collected for molecular analyses. Plasma samples were collected at Cycle 1 Day 1 (pre-treatment) and Cycle 2 Day 1 (i.e., day […] post-treatment). Six mL of intravenous blood was drawn into EDTA vacutainer tubes. The tubes were gently inverted 6-8 times and then centrifuged at 3000 RPM for 10 minutes to separate the plasma from the red cell layer. Plasma was collected from the tube and dispensed into a 3.5 mL cryovial using a transfer pipette, and then stored immediately at −20° C. The plasma samples were shipped on dry ice and then ultimately transferred to −80° C. storage. Plasma samples from 122 patients were used for blood biomarker analysis. Serum from Cycle 1 day 1 (baseline), and cycle 2 day 1 were used in this analysis. The association of progression free survival (PFS) and overall survival (OS) were analyzed. Plasma samples were tested in batch format where all timepoints from the same subject were assayed on the same day. On the day of assay, samples were removed from −80° C. and allowed to thaw and reach room temperature. The plasma samples were tested in a panel of ELISA and multiplex kit as per the manufacturer's instructions. The ELISA plates were measured using a Molecular Devices UVmax kinetic microplate reader with SoftMax Pro 5.2 software. The multiplex assays were performed using the Bio-Rad Bio-Plex system with Bio-Plex Manager 4.1 software. Final protein concentrations (pg/mL) were calculated from the standard curve for each assay. Depending on the assay, plasma samples may have been diluted in assay buffer prior to testing. In these cases, protein concentrations were multiplied by the dilution factor.
A cut-off value of Ang-2 was used to test if patients with baseline Ang-2 levels have better clinical outcomes, such as ORR, PFS, and OS. […]

[2] = tested on: cytokine, chemokine and angiogenic factors (CAFs); assay: Plasma cytokine, chemokine and angiogenic factor (CAF) levels pre- and post-treatment with E7080 (ELISA and multiplex); type: in vivo, human; conditions: cycle 2 day 1 vs cycle 1 day 1 (baseline), 122 patients
From the text: as §1
Materials and Methods: Patients who had metastatic/unresectable endometrial cancer after 1 or 2 prior platinum-based treatments received lenvatinib until disease progression or development of unmanageable toxicities. Patients received E7080 at a starting dose of 24 mg orally once daily in 28 day cycles. 133 patients were treated and evaluated for efficacy and molecular correlative analysis. This study was a part of the Phase 2 multicenter study of lenvatinib (ClinicalTrial.gov Identifier: NCT01111461). Baseline and post-treatment plasma samples were collected for molecular analyses. […] The association of progression free survival (PFS) and overall survival (OS) were analyzed. […] The ELISA plates were measured using a Molecular Devices UVmax kinetic microplate reader with SoftMax Pro 5.2 software. […] Final protein concentrations (pg/mL) were calculated from the standard curve for each assay. […]

[3] = sub-group with high baseline Ang-2 (>2082 pg/ml), 98 patients
[4] = sub-group with low baseline Ang-2 (<2082 pg/ml), 24 patients
[5] = without stratification based on Ang-2 levels

COc1cc2nccc(Oc3ccc(NC(=O)NC4CC4)c(Cl)c3)c2cc1C(N)=O [E7080, 4-(3-chloro-4-(cyclopropylaminocarbonyl)aminophenoxy)-7-methoxy-6-quinolinecarboxamide]
Progression-Free Survival (months) Median ([1]; Full Set Analysis (N = 133)): 5.4 months | Objective Response (CR + PR) ([1]; Full Set Analysis (N = 133), 24 mg orally once daily): 21.8% | Objective Response (CR + PR) ([1]; High Ang-2 ≥2082.51 (N = 98)): 17.8% | Overall Survival (months) Median ([1]; High Ang-2 ≥2082.51 (N = 98)): 8.9 months | Progression-Free Survival (months) Median ([1]; High Ang-2 ≥2082.51 (N = 98)): 3.7 months | Objective Response (CR + PR) ([1]; Low Ang-2 <2082.51 (N = 24)): 60.9% | Progression-Free Survival (months) Median ([1]; Low Ang-2 <2082.51 (N = 24)): 9.5 months | Median PFS ([1]; baseline ANG2(90), 0-25% subgroup): 225 days | mOS (day) in each quartile ([1]; baseline ANG2(90), 1st (low) quartile): 541 days | mOS (day) in each quartile ([1]; baseline ANG2(90), 2nd quartile): 353 days | mOS (day) in each quartile ([1]; baseline ANG2(90), 3rd quartile): 256 days | mOS (day) in each quartile ([1]; baseline ANG2(90), 4th (high) quartile): 260 days | Median PFS ([1]; baseline ANG2(90), 25-50% subgroup): 167 days | Median PFS ([1]; baseline ANG2(90), 50-75% subgroup): 145 days | Median PFS ([1]; baseline ANG2(90), 75-100% subgroup): 77 days | Median PFS ([1]; baseline Ang-2, 0-25% subgroup): 284 days | mOS (day) in each quartile ([1]; baseline Ang-2, 1st (low) quartile): 541 days | mOS (day) in each quartile ([1]; baseline Ang-2, 2nd quartile): 289 days | mOS (day) in each quartile ([1]; baseline Ang-2, 3rd quartile): 268 days | mOS (day) in each quartile ([1]; baseline Ang-2, 4th (high) quartile): 173 days | Median PFS ([1]; baseline Ang-2, 25-50% subgroup): 167 days | Median PFS ([1]; baseline Ang-2, 50-75% subgroup): 112 days | Median PFS ([1]; baseline Ang-2, 75-100% subgroup): 77 days | Median PFS ([1]; baseline HGF(86), 0-25% subgroup): 225 days | mOS (day) in each quartile ([1]; baseline HGF(86), 1st (low) quartile): 567 days | mOS (day) in each quartile ([1]; baseline HGF(86), 2nd quartile): 452 days | mOS (day) in each quartile ([1]; baseline HGF(86), 3rd quartile): 273 days | mOS (day) in each quartile ([1]; baseline HGF(86), 4th (high) quartile): 253 days | Median PFS ([1]; baseline HGF(86), 25-50% subgroup): 205 days | Median PFS ([1]; baseline HGF(86), 50-75% subgroup): 145 days | Median PFS ([1]; baseline HGF(86), 75-100% subgroup): 109 days | Median PFS ([1]; baseline IL-8(40), 0-25% subgroup): 281 days | mOS (day) in each quartile ([1]; baseline IL-8(40), 2nd quartile): 315 days | mOS (day) in each quartile ([1]; baseline IL-8(40), 3rd quartile): 340 days | mOS (day) in each quartile ([1]; baseline IL-8(40), 4th (high) quartile): 127 days | Median PFS ([1]; baseline IL-8(40), 25-50% subgroup): 222 days | Median PFS ([1]; baseline IL-8(40), 50-75% subgroup): 145 days | Median PFS ([1]; baseline IL-8(40), 75-100% subgroup): 71 days | Median PFS ([1]; baseline IP-10(56), 0-25% subgroup): 167 days | Median PFS ([1]; baseline IP-10(56), 25-50% subgroup): 174 days | Median PFS ([1]; baseline IP-10(56), 50-75% subgroup): 220 days | Median PFS ([1]; baseline IP-10(56), 75-100% subgroup): 77 days | Median PFS ([1]; baseline MCP-1(58), 0-25% subgroup): 227 days | mOS (day) in each quartile ([1]; baseline MCP-1(58), 1st (low) quartile): 463 days | mOS (day) in each quartile ([1]; baseline MCP-1(58), 2nd quartile): 393 days | mOS (day) in each quartile ([1]; baseline MCP-1(58), 3rd quartile): 340 days | mOS (day) in each quartile ([1]; baseline MCP-1(58), 4th (high) quartile): 192 days | Median PFS ([1]; baseline MCP-1(58), 25-50% subgroup): 155 days | Median PFS ([1]; baseline MCP-1(58), 50-75% subgroup): 167 days | Median PFS ([1]; baseline MCP-1(58), 75-100% subgroup): 111 days | mOS (day) in each quartile ([1]; baseline MIP-1a(64), 2nd quartile): 293 days | mOS (day) in each quartile ([1]; baseline MIP-1a(64), 3rd quartile): 353 days | mOS (day) in each quartile ([1]; baseline MIP-1a(64), 4th (high) quartile): 264 days | Median PFS ([1]; baseline MIP-la(64), 0-25% subgroup): 210 days | Median PFS ([1]; baseline MIP-la(64), 25-50% subgroup): 155 days | Median PFS ([1]; baseline MIP-la(64), 50-75% subgroup): 117 days | Median PFS ([1]; baseline MIP-la(64), 75-100% subgroup): 166 days | Median PFS ([1]; baseline PGF(91), 0-25% subgroup): 170 days | mOS (day) in each quartile ([1]; baseline PGF(91), 2nd quartile): 350 days | mOS (day) in each quartile ([1]; baseline PGF(91), 3rd quartile): 393 days | mOS (day) in each quartile ([1]; baseline PGF(91), 4th (high) quartile): 173 days | Median PFS ([1]; baseline PGF(91), 25-50% subgroup): 174 days | Median PFS ([1]; baseline PGF(91), 50-75% subgroup): 218 days | Median PFS ([1]; baseline PGF(91), 75-100% subgroup): 77 days | Median PFS ([1]; baseline TNFa(80), 0-25% subgroup): 282 days | mOS (day) in each quartile ([1]; baseline TNFa(80), 1st (low) quartile): 654 days | mOS (day) in each quartile ([1]; baseline TNFa(80), 2nd quartile): 353 days | mOS (day) in each quartile ([1]; baseline TNFa(80), 3rd quartile): 393 days | mOS (day) in each quartile ([1]; baseline TNFa(80), 4th (high) quartile): 218 days | Median PFS ([1]; baseline TNFa(80), 25-50% subgroup): 117 days | Median PFS ([1]; baseline TNFa(80), 50-75% subgroup): 166 days | Median PFS ([1]; baseline TNFa(80), 75-100% subgroup): 112 days | Median PFS ([1]; baseline Tie-2, 0-25% subgroup): 273 days | mOS (day) in each quartile ([1]; baseline Tie-2, 1st (low) quartile): 541 days | mOS (day) in each quartile ([1]; baseline Tie-2, 2nd quartile): 282 days | mOS (day) in each quartile ([1]; baseline Tie-2, 3rd quartile): 291 days | mOS (day) in each quartile ([1]; baseline Tie-2, 4th (high) quartile): 192 days | Median PFS ([1]; baseline Tie-2, 25-50% subgroup): 165 days | Median PFS ([1]; baseline Tie-2, 50-75% subgroup): 155 days | Median PFS ([1]; baseline Tie-2, 75-100% subgroup): 112 days | Median PFS ([1]; baseline VEGFA(100), 0-25% subgroup): 158 days | mOS (day) in each quartile ([1]; baseline VEGFA(100), 1st (low) quartile): 350 days | mOS (day) in each quartile ([1]; baseline VEGFA(100), 2nd quartile): 541 days | mOS (day) in each quartile ([1]; baseline VEGFA(100), 3rd quartile): 365 days | mOS (day) in each quartile ([1]; baseline VEGFA(100), 4th (high) quartile): 260 days | Median PFS ([1]; baseline VEGFA(100), 25-50% subgroup): 205 days | Median PFS ([1]; baseline VEGFA(100), 50-75% subgroup): 165 days | Median PFS ([1]; baseline VEGFA(100), 75-100% subgroup): 83 days | Median PFS ([1]; baseline sIL-2Ra(76), 0-25% subgroup): 210 days | mOS (day) in each quartile ([1]; baseline sIL-2Ra(76), 1st (low) quartile): 562 days | mOS (day) in each quartile ([1]; baseline sIL-2Ra(76), 2nd quartile): 295 days | mOS (day) in each quartile ([1]; baseline sIL-2Ra(76), 3rd quartile): 387 days | mOS (day) in each quartile ([1]; baseline sIL-2Ra(76), 4th (high) quartile): 161 days | Median PFS ([1]; baseline sIL-2Ra(76), 25-50% subgroup): 161 days | Median PFS ([1]; baseline sIL-2Ra(76), 50-75% subgroup): 177 days | Median PFS ([1]; baseline sIL-2Ra(76), 75-100% subgroup): 72.5 days | ORR ([1]; sub-group with high baseline Ang-2 (>2082 pg/ml)): 18% | mean OS [1, 3]: 8.9 months | mean PFS [1, 3]: 3.7 months | ORR ([1]; sub-group with low baseline Ang-2 (<2082 pg/ml)): 61% | mean OS [1, 4]: 23 months | mean PFS [1, 4]: 9.5 months | ORR [1, 5]: 21.1% | mOS [1, 5]: 10.6 months | mPFS [1, 5]: 5.4 months | changes in levels of CAFs at post-treatment compared to pre-treatment [2]: Significant changes in levels of 19 CAFs among 50 CAFs tested
